Measurements taken from BindingDB's records for doi:10.1021/jm8009124 (University of Connecticut At Storrs, 2008).

Target: T1, Bifunctional dihydrofolate reductase-thymidylate synthase (Cryptosporidium parvum, UniProt Q27552)
T1 sequence (Q27552 whole entry): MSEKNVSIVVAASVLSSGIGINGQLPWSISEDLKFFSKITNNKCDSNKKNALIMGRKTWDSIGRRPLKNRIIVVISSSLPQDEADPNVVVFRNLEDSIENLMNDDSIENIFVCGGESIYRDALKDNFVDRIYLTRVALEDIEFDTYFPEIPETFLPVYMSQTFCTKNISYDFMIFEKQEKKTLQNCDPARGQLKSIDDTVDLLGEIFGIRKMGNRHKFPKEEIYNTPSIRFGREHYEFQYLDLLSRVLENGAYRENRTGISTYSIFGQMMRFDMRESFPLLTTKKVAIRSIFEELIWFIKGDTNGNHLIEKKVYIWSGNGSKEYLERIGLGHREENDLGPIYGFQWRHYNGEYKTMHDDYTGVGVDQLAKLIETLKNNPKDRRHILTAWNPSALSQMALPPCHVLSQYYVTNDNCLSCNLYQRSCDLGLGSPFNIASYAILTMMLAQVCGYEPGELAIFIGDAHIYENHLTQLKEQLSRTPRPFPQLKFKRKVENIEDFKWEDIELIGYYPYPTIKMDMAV
Assay: DHFR Inhibition Assay
Details: pH 7; 25 °C
Protocol: Enzyme activity assays were performed by monitoring the change in UV absorbance at 340 nm. Enzyme assays were performed at least four times. IC50 values and their standard deviations were calculated in the presence of varying ligand concentration.

Row | Structure (SMILES) | IC50 [nM]
1 | COc1cc(C(C)C#Cc2c(C)nc(N)nc2N)ccc1-c1ccccc1C (stereo unspecified) [5-{3-[3-methoxy-4-(2-methylphenyl)phenyl]but-1-yn-1-yl}-6-methylpyrimidine-2,4-diamine] | 36
2 | COc1cc(C(C)C#Cc2c(C)nc(N)nc2N)ccc1-c1c(C)cccc1C (stereo unspecified) [5-{3-[4-(2,6-dimethylphenyl)-3-methoxyphenyl]but-1-yn-1-yl}-6-methylpyrimidine-2,4-diamine] | 7.4
3 | COc1cc(C(C)C#Cc2c(C)nc(N)nc2N)ccc1-c1ccccc1 (stereo unspecified) [5-[3-(3-methoxy-4-phenylphenyl)but-1-yn-1-yl]-6-methylpyrimidine-2,4-diamine] | 19
4 | COc1cc(-c2ccccc2)cc([C@@H](C)C#Cc2c(C)nc(N)nc2N)c1 [5-[(3R)-3-(3-methoxy-5-phenylphenyl)but-1-yn-1-yl]-6-methylpyrimidine-2,4-diamine] | 1.1
5 | COc1cc(-c2ccccc2)cc([C@H](C)C#Cc2c(C)nc(N)nc2N)c1 [5-[(3S)-3-(3-methoxy-5-phenylphenyl)but-1-yn-1-yl]-6-methylpyrimidine-2,4-diamine] | 30
6 | COc1cc(-c2c(C(C)C)cccc2C(C)C)cc(C(C)C#Cc2c(C)nc(N)nc2N)c1 (stereo unspecified) [5-(3-{3-[2,6-bis(propan-2-yl)phenyl]-5-methoxyphenyl}but-1-yn-1-yl)-6-methylpyrimidine-2,4-diamine] | 10
